Data from patent US20230365546A1, “5-SUBSTITUTED INDOLE 3-AMIDE DERIVATIVES, PREPARATION METHOD AND USE THEREOF” (ORIGIANT PHARMACEUTICAL CO., LTD, priority 2020, published 2023).

Experiments:
Test in all cases: Kinase Profiler 10 μM panel
[1] = target: Rse(h) (Homo sapiens (Human), UniProt Q06418)
Procedure: (§1) In vitro kinase assays were conducted using Kinase Profiler services provided by Eurofins. The experimental method was as follows: the small molecule compound to be tested (0.001-10 μM), the protein kinase to be tested were incubated with a buffer containing substrate, 10 mM magnesium acetate, and [γ-^33P-ATP], the reaction was started by adding Mg\TPmix, after incubation for a period of time at room temperature, a 3% phosphate solution was added to the buffer to stop the reaction. Subsequently, 10 μL of the reaction mixture was quantitatively pipetted onto P30 filter paper, which was washed three times with 75 mM phosphate solution and then once with methanol. The P30 filter paper was air-dried and scintillation fluid was added for scintillation counting.

[2] = target: TAK1(h) (Homo sapiens (Human), UniProt O43318)
Procedure: as §1

[3] = target: GRK5(h) (Homo sapiens (Human), UniProt P34947)
Procedure: as §1

[4] = target: Abl(T315I)(h) (Homo sapiens (Human), UniProt P00519, T315I)
Procedure: as §1

[5] = target: Axl(h) (Homo sapiens (Human), UniProt P30530)
Procedure: as §1

[6] = target: PKCη(h) (Homo sapiens (Human), UniProt P24723)
Procedure: as §1

[7] = target: CaMKIIγ(h) (Homo sapiens (Human), UniProt Q13555)
Procedure: as §1

[8] = target: TGFBR2(h) (Homo sapiens (Human), UniProt P37173)
Procedure: as §1

[9] = target: IKKϵ(h) (Homo sapiens (Human), UniProt Q14164)
Procedure: as §1

[10] = target: Met(D1246N)(h) (Homo sapiens (Human), UniProt P08581, D1228N)
Procedure: as §1

[11] = target: ZAP-70(h) (Homo sapiens (Human), UniProt P43403)
Procedure: as §1

[12] = target: STK16(h) (Homo sapiens (Human), UniProt O75716)
Procedure: as §1

[13] = target: NUAK2(h) (Homo sapiens (Human), UniProt Q9H093)
Procedure: as §1

[14] = target: CDK5/p35(h) (Homo sapiens (Human), UniProt Q00535)
Procedure: as §1

[15] = target: Fgr(h) (Homo sapiens (Human), UniProt P09769)
Procedure: as §1

[16] = target: CK1γ1(h) (Homo sapiens (Human), UniProt Q9HCP0)
Procedure: as §1

[17] = target: PI3 Kinase (p110a(E545K)/p85a)(m) (Mus musculus (Mouse), UniProt P42337, E545K)
Procedure: as §1

[18] = target: FGFR1(h) (Homo sapiens (Human), UniProt P11362)
Procedure: as §1

[19] = target: MAPKAP-K3(h) (Homo sapiens (Human), UniProt Q16644)
Procedure: as §1

[20] = target: DAPK2(h) (Homo sapiens (Human), UniProt Q9UIK4)
Procedure: as §1

[21] = target: Rsk1(r) (Rattus norvegicus (Rat), UniProt Q63531)
Procedure: as §1

[22] = target: IR(h) (Homo sapiens (Human), UniProt P06213)
Procedure: as §1

[23] = target: ErbB4(h) (Homo sapiens (Human), UniProt Q15303)
Procedure: as §1

[24] = target: KDR(h) (Homo sapiens (Human), UniProt P35968)
Procedure: as §1

[25] = target: PDK1(h) (Homo sapiens (Human), UniProt O15530)
Procedure: as §1

[26] = target: PDGFRα(D842V)(h) (Homo sapiens (Human), UniProt P16234, D842V)
Procedure: as §1

[27] = target: PIP4K2a(h) (Homo sapiens (Human), UniProt P48426)
Procedure: as §1

[28] = target: Fer(h) (Homo sapiens (Human), UniProt P16591)
Procedure: as §1

[29] = target: CSRC(h) (Homo sapiens (Human), UniProt P12931)
Procedure: as §1

[30] = target: LKB1(h) (Homo sapiens (Human), UniProt Q15831)
Procedure: as §1

[31] = target: MEKK2(h) (Homo sapiens (Human), UniProt Q9Y2U5)
Procedure: as §1

[32] = target: FAK(h) (Homo sapiens (Human), UniProt Q05397)
Procedure: as §1

[33] = target: PI3KC2g(h) (Homo sapiens (Human), UniProt O75747)
Procedure: as §1

Sequence of Met(D1246N)(h) (P08581 956-1390 D1228N limits assumed): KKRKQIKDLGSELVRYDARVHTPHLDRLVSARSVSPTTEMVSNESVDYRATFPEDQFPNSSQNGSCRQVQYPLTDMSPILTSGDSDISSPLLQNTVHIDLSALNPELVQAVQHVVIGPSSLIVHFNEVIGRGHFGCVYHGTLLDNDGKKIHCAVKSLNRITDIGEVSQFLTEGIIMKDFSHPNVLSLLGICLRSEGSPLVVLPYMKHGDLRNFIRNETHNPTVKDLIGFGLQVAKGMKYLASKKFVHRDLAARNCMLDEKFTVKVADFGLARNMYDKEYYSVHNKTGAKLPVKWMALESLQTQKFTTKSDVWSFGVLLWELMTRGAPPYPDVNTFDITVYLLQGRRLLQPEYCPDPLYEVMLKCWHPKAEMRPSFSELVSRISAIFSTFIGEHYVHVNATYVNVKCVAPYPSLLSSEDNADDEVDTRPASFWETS
Sequence of ErbB4(h) (Q15303 26-1308): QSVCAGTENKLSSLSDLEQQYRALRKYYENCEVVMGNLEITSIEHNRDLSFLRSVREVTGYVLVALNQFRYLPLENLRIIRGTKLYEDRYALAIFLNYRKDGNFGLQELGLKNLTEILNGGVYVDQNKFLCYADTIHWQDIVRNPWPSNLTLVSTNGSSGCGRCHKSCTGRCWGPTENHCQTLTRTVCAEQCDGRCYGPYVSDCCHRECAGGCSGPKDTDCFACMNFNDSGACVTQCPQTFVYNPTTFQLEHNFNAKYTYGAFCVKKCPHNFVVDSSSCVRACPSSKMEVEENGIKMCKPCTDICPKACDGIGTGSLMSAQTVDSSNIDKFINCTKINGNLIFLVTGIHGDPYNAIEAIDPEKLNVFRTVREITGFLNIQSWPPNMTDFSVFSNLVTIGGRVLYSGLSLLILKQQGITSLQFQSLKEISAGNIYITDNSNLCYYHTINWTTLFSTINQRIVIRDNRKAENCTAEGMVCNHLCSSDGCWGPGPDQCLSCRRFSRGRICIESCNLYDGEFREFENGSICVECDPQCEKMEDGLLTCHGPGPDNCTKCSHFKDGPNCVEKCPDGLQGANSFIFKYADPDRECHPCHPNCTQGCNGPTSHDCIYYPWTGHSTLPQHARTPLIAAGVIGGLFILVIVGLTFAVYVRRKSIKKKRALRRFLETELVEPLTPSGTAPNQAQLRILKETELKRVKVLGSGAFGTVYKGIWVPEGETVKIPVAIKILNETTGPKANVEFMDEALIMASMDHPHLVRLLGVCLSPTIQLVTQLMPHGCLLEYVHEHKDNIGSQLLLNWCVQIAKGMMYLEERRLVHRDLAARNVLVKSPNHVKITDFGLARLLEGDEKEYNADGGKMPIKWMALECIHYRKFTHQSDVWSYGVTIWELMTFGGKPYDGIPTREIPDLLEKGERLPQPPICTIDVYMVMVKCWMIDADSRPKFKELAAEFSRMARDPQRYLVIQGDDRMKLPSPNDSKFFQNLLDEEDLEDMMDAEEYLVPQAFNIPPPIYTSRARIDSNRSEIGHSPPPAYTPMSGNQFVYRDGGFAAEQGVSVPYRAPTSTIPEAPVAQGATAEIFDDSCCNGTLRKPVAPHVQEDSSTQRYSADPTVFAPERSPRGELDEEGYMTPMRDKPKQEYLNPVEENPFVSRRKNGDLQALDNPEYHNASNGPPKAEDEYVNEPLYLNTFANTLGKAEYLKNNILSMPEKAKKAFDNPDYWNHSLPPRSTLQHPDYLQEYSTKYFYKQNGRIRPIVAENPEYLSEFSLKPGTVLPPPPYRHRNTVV
Sequence of GRK5(h) (P34947 whole entry): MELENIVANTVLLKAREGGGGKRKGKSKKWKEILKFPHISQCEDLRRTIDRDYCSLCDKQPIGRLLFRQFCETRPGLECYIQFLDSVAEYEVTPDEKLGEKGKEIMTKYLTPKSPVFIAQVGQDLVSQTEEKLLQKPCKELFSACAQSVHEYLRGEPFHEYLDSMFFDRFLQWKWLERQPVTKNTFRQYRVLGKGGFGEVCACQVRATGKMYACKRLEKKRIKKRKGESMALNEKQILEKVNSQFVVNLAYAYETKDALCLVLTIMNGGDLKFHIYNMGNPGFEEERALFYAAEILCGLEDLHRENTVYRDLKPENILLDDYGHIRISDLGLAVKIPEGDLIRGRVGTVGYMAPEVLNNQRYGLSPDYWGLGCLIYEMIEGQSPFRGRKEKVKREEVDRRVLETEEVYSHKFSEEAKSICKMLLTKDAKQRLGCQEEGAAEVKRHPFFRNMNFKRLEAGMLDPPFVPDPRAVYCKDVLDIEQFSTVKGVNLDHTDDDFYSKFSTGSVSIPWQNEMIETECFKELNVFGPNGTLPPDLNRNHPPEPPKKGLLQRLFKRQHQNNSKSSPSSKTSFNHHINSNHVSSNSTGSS
Sequence of FGFR1(h) (P11362 22-822): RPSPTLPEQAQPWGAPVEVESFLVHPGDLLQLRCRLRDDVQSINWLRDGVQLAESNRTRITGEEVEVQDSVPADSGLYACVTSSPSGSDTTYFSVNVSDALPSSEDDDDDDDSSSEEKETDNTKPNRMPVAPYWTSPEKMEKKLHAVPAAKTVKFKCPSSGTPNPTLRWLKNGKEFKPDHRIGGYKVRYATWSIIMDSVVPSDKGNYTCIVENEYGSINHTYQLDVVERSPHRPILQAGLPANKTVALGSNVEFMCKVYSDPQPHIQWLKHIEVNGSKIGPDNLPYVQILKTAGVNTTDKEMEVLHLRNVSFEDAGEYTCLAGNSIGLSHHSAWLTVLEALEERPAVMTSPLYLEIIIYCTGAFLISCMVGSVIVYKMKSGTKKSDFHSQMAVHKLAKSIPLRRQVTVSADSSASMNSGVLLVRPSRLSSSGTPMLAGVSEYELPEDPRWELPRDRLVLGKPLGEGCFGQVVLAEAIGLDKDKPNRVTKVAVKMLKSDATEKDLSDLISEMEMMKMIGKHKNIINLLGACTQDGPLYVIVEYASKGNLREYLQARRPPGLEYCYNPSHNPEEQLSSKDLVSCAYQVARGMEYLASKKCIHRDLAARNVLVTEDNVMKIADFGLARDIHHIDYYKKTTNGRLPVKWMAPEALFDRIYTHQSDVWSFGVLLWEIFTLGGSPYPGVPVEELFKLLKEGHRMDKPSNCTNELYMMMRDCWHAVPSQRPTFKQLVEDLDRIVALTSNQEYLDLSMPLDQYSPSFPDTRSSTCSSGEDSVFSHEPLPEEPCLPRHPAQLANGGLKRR
Sequence of TAK1(h) (O43318 1-303): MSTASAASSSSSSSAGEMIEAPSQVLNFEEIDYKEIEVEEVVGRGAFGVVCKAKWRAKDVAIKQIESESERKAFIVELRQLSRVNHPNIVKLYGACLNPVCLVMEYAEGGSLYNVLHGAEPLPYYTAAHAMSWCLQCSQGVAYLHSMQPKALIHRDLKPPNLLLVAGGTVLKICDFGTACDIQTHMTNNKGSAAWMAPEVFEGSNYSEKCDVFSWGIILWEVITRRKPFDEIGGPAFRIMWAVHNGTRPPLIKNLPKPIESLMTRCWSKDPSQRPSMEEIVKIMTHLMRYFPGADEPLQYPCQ
Sequence of MAPKAP-K3(h) (Q16644 whole entry): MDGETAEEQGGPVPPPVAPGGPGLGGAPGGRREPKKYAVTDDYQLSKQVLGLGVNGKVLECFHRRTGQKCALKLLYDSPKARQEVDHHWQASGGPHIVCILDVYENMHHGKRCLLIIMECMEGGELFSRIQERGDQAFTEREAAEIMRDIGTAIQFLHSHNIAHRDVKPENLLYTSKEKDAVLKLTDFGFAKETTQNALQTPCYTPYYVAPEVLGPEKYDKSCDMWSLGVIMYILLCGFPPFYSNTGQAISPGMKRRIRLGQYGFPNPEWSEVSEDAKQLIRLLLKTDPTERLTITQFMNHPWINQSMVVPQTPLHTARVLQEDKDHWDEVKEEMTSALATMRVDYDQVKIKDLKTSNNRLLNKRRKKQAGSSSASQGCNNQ
Sequence of CaMKIIγ(h) (Q13555 whole entry): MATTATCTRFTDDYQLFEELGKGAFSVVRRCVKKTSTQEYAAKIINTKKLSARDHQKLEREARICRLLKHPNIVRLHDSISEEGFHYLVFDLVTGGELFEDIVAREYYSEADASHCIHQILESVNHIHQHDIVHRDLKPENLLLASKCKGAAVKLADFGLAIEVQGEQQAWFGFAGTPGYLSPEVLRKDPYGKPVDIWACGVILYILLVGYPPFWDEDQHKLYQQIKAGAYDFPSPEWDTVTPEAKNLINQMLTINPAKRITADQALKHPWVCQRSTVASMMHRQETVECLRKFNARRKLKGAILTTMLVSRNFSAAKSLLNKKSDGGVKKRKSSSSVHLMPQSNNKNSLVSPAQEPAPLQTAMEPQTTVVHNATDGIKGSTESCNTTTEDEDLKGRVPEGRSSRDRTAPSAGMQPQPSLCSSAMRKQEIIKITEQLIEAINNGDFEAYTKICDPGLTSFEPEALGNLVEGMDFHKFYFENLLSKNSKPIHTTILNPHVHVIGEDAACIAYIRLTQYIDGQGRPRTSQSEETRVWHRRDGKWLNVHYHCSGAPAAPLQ
Sequence of CSRC(h) (P12931 whole entry, looked up): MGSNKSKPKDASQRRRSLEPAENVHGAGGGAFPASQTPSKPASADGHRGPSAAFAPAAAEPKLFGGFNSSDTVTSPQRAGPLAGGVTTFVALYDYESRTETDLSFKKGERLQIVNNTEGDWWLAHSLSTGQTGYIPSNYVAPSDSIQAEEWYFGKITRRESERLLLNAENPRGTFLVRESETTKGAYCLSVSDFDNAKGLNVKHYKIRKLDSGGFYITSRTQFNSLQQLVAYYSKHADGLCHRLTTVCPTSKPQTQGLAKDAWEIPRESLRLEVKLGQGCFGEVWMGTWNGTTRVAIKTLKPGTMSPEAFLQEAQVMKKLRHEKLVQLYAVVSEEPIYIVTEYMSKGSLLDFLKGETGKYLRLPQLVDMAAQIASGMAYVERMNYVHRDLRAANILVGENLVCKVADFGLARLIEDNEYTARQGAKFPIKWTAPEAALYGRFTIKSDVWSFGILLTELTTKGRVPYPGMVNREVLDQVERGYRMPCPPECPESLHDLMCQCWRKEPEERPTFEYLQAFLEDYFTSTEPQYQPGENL

C[C@H](NC(=O)c1c[nH]c2ccc(-c3ccc4nc(NC(=O)C5CC5)sc4c3)cc12)c1cccc(F)c1 [Compound 34, (S)-5-(2-(cyclopropanecarboxamido)benzo[d]thiazol-6-yl)-N-(1-(3-fluorophenyl)ethyl)-1H-indole-3-carboxamide]
Inhibition ratio [1]: 69% | Inhibition ratio [2]: 45% | Inhibition ratio [3]: 0% | Inhibition ratio [4]: 101% | Inhibition ratio [5]: 86% | Inhibition ratio [6]: −3% | Inhibition ratio [7]: 2% | Inhibition ratio [8]: 25% | Inhibition ratio [9]: 19% | Inhibition ratio [10]: 86% | Inhibition ratio [11]: 8% | Inhibition ratio [12]: 17% | Inhibition ratio [13]: 9% | Inhibition ratio [14]: −7% | Inhibition ratio [15]: 42% | Inhibition ratio [16]: 5% | Inhibition ratio [17]: 24% | Inhibition ratio [18]: 72% | Inhibition ratio [19]: −1% | Inhibition ratio [20]: 13% | Inhibition ratio [21]: 45% | Inhibition ratio [22]: 36% | Inhibition ratio [23]: 22% | Inhibition ratio [24]: 83% | Inhibition ratio [25]: 19% | Inhibition ratio [26]: 56% | Inhibition ratio [27]: 17% | Inhibition ratio [28]: 62% | Inhibition ratio [29]: 43% | Inhibition ratio [30]: 6% | Inhibition ratio [31]: 3% | Inhibition ratio [32]: 33% | Inhibition ratio [33]: 76%

C[C@H](NC(=O)c1cn(C)c2ccc(-c3ccn4nc(NC(=O)C5CC5)nc4c3)cc12)c1cccc(F)c1 [Compound 94, (S)-5-(2-(cyclopropanecarboxamido)-[1,2,4]triazolo[1,5-a]pyridin-7-yl)-N-(1-(3-fluorophenyl)ethyl)-1-methyl-1H-indole-3-carboxamide]
Inhibition ratio/% [1]: 53% | Inhibition ratio/% [2]: 9% | Inhibition ratio/% [3]: 21% | Inhibition ratio/% [4]: 33% | Inhibition ratio/% [5]: 31% | Inhibition ratio/% [6]: 27% | Inhibition ratio/% [7]: −15% | Inhibition ratio/% [8]: −6% | Inhibition ratio/% [9]: −15% | Inhibition ratio/% [10]: −11% | Inhibition ratio/% [11]: 1% | Inhibition ratio/% [12]: 20% | Inhibition ratio/% [13]: 30% | Inhibition ratio/% [14]: −8% | Inhibition ratio/% [15]: 8% | Inhibition ratio/% [16]: 19% | Inhibition ratio/% [17]: 32% | Inhibition ratio/% [18]: 70% | Inhibition ratio/% [19]: −12% | Inhibition ratio/% [20]: 3% | Inhibition ratio/% [21]: 20% | Inhibition ratio/% [22]: 27% | Inhibition ratio/% [23]: 63% | Inhibition ratio/% [24]: −12% | Inhibition ratio/% [25]: 18% | Inhibition ratio/% [26]: 37% | Inhibition ratio/% [27]: 7% | Inhibition ratio/% [28]: 10% | Inhibition ratio/% [29]: −17% | Inhibition ratio/% [30]: 55% | Inhibition ratio/% [31]: −10% | Inhibition ratio/% [32]: −3% | Inhibition ratio/% [33]: 24%
